{
  "source": "patent US12274732B2",
  "about": "“Anti-pathogen composition and methods of use thereof” (Tenfold Technologies, LLC, priority 2017, dated 2025)",
  "format_in_all_cases": "cell-based",
  "key": {"Cryptococcus neoformans": {"tested_on": "Cryptococcus neoformans", "assay": "In vitro antimicrobial activity against Cryptococcus neoformans", "details": "Table 12", "procedure": "(§1) Fifty organic extracts were prepared from 25 whole broth of four microbial strains (MS1479, MS2379, MS2820, and MS2414), which were fermented in different media for the antimicrobial testing. Note each whole broth culture generated one n-butanol extract from cultural supernatant and one methanol extract from cell pellets.\n(§2) The antimicrobial activities of the 50 organic extracts were studied against three fungal pathogens—Candida albicans, Aspergillus fumigatus, and Cryptococcus neoformans—and five bacterial strains-Methicillin-resistant Staphylococcus aureus (MIRSA), Escherichia coli, Pseudomonas aeruginosa, Klebsiella pneumoniae, and Vancomycin-resistant Enterococcus faecium (VRE) (FIG. 2). The test concentrations for all extracts were in the range of 8-200 μg/mL (Table 3).\nThe potent activities against the fungal pathogen C. neoformans and the gram-positive bacteria S. aureus, MRSA, and M. intracellulare were also shown in the crude extracts (FIG. 7).\n(§3) The antimicrobial activities of identified fusaricidins were in an in vitro study against several clinically relevant microbes. […] For the in-vitro assays against bacteria, fusaricidins were tested against methicillin-resistant Staphylococcus aureus, vancomycin-resistant Enterococcus faecium, Escherichia coli, and Pseudomonas aeruginosa using four antibacterial drugs methicillin, vancomycin, cefotaxime, and meropenem as controls. […] Fusaricidins were also tested against fungal pathogens Cryptococcus neoformans, Candida albicans, and Aspergillus fumigatus and compared with two antifungal drugs, fluconazole and amphotericin B (Table 13). Moreover, the anti-parasitic activity was also tested against L. donovani and T. brucei (Table 14)."}, "Candida albicans": {"tested_on": "Candida albicans", "assay": "In vitro antimicrobial activity against Candida albicans", "details": "Table 12; for C. albicans MIC (minimum inhibitory concentration): lowest concentration that allows no detectable growth", "procedure": "as §1, §2, §3"}, "Aspergillus fumigatus": {"tested_on": "Aspergillus fumigatus", "assay": "In vitro antimicrobial activity against Aspergillus fumigatus", "details": "Table 12", "procedure": "as §1, §2, §3"}, "[1]": {"tested_on": "Methicillin-resistant Staphylococcus aureus (MRSA)", "assay": "In vitro antimicrobial activity against MRSA", "details": "for MRSA IC50 (50% growth inhibitory concentration) / MRSA MIC (minimum inhibitory concentration): Table 13, Methicillin-resistant Staphylococcus aureus ATCC 1708", "procedure": "as §1, §2, §3"}, "[2]": {"tested_on": "Vancomycin-resistant Enterococcus faecium (VRE)", "assay": "In vitro antimicrobial activity against VRE", "details": "for VRE IC50 (50% growth inhibitory concentration) / VRE MIC (minimum inhibitory concentration): Table 13, Vancomycin-resistant Enterococcus faecium ATCC 700221", "procedure": "as §1, §2, §3"}, "Escherichia coli": {"tested_on": "Escherichia coli", "assay": "In vitro antimicrobial activity against Escherichia coli", "details": "Table 13; Escherichia coli ATCC 2452", "procedure": "as §1, §2, §3"}, "Pseudomonas aeruginosa": {"tested_on": "Pseudomonas aeruginosa", "assay": "In vitro antimicrobial activity against Pseudomonas aeruginosa", "details": "Table 13; Pseudomonas aeruginosa ATCC 2108", "procedure": "as §1, §2, §3"}, "[3]": {"details": "highest test conc. fusaricidins 20, controls 100 μg/mL"}, "[4]": {"details": "lowest concentration that allows no detectable growth"}},
  "note": "Positions of bridges follow the written chain, without caps; N, C: chain ends. Non-standard residues stand in square brackets, D forms with d. Residues, ends and D or L forms follow the SMILES beside them. ξ: configuration not given here. *: point of attachment. Pentadecanoyl(3ξ-OH,15-Gua) = N=C(N)NCCCCCCCCCCCCC(O)CC(=O)*; d(aThr) = C[C@@H](O)[C@@H](N)C(=O)O; Thr(3ξ) = CC(O)[C@H](N)C(=O)O",
  "data": [
    {"molecule": "OC(Cn1cncn1)(Cn1cncn1)c1ccc(F)cc1F", "note": "[Fluconazol]", "values": [
      {"measurement": "IC50", "setting": "Cryptococcus neoformans; Cryptococcus neoformans, highest test conc. fusaricidins 20, controls 100 μg/mL, read-out: C. neoformans IC50 (50% growth inhibitory concentration)", "value": 2.5, "unit": "µg/mL"},
      {"measurement": "MIC", "setting": "Cryptococcus neoformans; Cryptococcus neoformans, lowest concentration that allows no detectable growth, read-out: C. neoformans MIC (minimum inhibitory concentration)", "value": 6.3, "unit": "µg/mL"},
      {"measurement": "IC50", "setting": "Candida albicans; Candida albicans, highest test conc. fusaricidins 20, controls 100 μg/mL, read-out: C. albicans IC50 (50% growth inhibitory concentration)", "value": 1, "unit": "µg/mL"},
      {"measurement": "IC50", "setting": "Aspergillus fumigatus; Aspergillus fumigatus, highest test conc. fusaricidins 20, controls 100 μg/mL, read-out: A. fumigatus IC50 (50% growth inhibitory concentration)", "value": "> 100", "unit": "µg/mL"},
      {"measurement": "MIC", "setting": "Aspergillus fumigatus; Aspergillus fumigatus, lowest concentration that allows no detectable growth, read-out: A. fumigatus MIC (minimum inhibitory concentration)", "value": "> 100", "unit": "µg/mL"}
    ]},
    {"molecule": "CC(C)[C@@H]1NC(=O)[C@@H](C(C)C)NC(=O)[C@@H](NC(=O)CC(O)CCCCCCCCCCCCN=C(N)N)[C@@H](C)OC(=O)[C@@H](C)NC(=O)[C@@H](CC(N)=O)NC(=O)[C@@H]([C@@H](C)O)NC1=O", "note": "(stereo partly shown) [Fusaricidin A (RRR-8-32Q)] ({Pentadecanoyl(3ξ-OH,15-Gua)}-T[dV]V[d(aThr)][dN][dA]; ester 1-C)", "values": [
      {"measurement": "MRSA IC50 (50% growth inhibitory concentration)", "setting": "[1]", "value": 2.1, "unit": "µg/mL"},
      {"measurement": "MRSA MIC (minimum inhibitory concentration)", "setting": "[1]", "value": 2.5, "unit": "µg/mL"},
      {"measurement": "C. neoformans IC50 (50% growth inhibitory concentration)", "setting": "Cryptococcus neoformans; [3]", "value": 1.2, "unit": "µg/mL"},
      {"measurement": "C. neoformans MIC (minimum inhibitory concentration)", "setting": "Cryptococcus neoformans; [4]", "value": 2.5, "unit": "µg/mL"},
      {"measurement": "VRE IC50 (50% growth inhibitory concentration)", "setting": "[2]", "value": 3.7, "unit": "µg/mL"},
      {"measurement": "VRE MIC (minimum inhibitory concentration)", "setting": "[2]", "value": 5.0, "unit": "µg/mL"},
      {"measurement": "E. coli IC50 (50% growth inhibitory concentration)", "setting": "Escherichia coli", "value": ">20/>20 μg/mL"},
      {"measurement": "E. coli MIC (minimum inhibitory concentration)", "setting": "Escherichia coli", "value": ">20/>20 μg/mL"},
      {"measurement": "P. aeruginosa IC50 (50% growth inhibitory concentration)", "setting": "Pseudomonas aeruginosa", "value": ">20/>20 μg/mL"},
      {"measurement": "P. aeruginosa MIC (minimum inhibitory concentration)", "setting": "Pseudomonas aeruginosa", "value": ">20/>20 μg/mL"},
      {"measurement": "C. albicans IC50 (50% growth inhibitory concentration)", "setting": "Candida albicans; [3]", "value": 3.5, "unit": "µg/mL"},
      {"measurement": "C. albicans MIC (minimum inhibitory concentration)", "setting": "Candida albicans", "value": 5.0, "unit": "µg/mL"},
      {"measurement": "A. fumigatus IC50 (50% growth inhibitory concentration)", "setting": "Aspergillus fumigatus; [3]", "value": 18.5, "unit": "µg/mL"},
      {"measurement": "A. fumigatus MIC (minimum inhibitory concentration)", "setting": "Aspergillus fumigatus; [4]", "value": "> 20", "unit": "µg/mL"}
    ]},
    {"molecule": "CC(C)[C@@H]1NC(=O)[C@@H](C(C)C)NC(=O)[C@@H](NC(=O)CC(O)CCCCCCCCCCCCN=C(N)N)[C@@H](C)OC(=O)[C@@H](C)NC(=O)[C@@H](CC(N)=O)NC(=O)[C@@H]([C@@H](C)O)NC1=O", "note": "(stereo partly shown) [Fusaricidin A (SQ-1-43 A)] ({Pentadecanoyl(3ξ-OH,15-Gua)}-T[dV]V[d(aThr)][dN][dA]; ester 1-C)", "values": [
      {"measurement": "MRSA IC50 (50% growth inhibitory concentration)", "setting": "[1]", "value": 2.3, "unit": "µg/mL"},
      {"measurement": "MRSA MIC (minimum inhibitory concentration)", "setting": "[1]", "value": 2.5, "unit": "µg/mL"},
      {"measurement": "C. neoformans IC50 (50% growth inhibitory concentration)", "setting": "Cryptococcus neoformans; [3]", "value": 0.5, "unit": "µg/mL"},
      {"measurement": "C. neoformans MIC (minimum inhibitory concentration)", "setting": "Cryptococcus neoformans; [4]", "value": 1.3, "unit": "µg/mL"},
      {"measurement": "VRE IC50 (50% growth inhibitory concentration)", "setting": "[2]", "value": 3.6, "unit": "µg/mL"},
      {"measurement": "VRE MIC (minimum inhibitory concentration)", "setting": "[2]", "value": 5.0, "unit": "µg/mL"},
      {"measurement": "E. coli IC50 (50% growth inhibitory concentration)", "setting": "Escherichia coli", "value": ">20/>20 μg/mL"},
      {"measurement": "E. coli MIC (minimum inhibitory concentration)", "setting": "Escherichia coli", "value": ">20/>20 μg/mL"},
      {"measurement": "P. aeruginosa IC50 (50% growth inhibitory concentration)", "setting": "Pseudomonas aeruginosa", "value": ">20/>20 μg/mL"},
      {"measurement": "P. aeruginosa MIC (minimum inhibitory concentration)", "setting": "Pseudomonas aeruginosa", "value": ">20/>20 μg/mL"},
      {"measurement": "C. albicans IC50 (50% growth inhibitory concentration)", "setting": "Candida albicans; [3]", "value": 5.1, "unit": "µg/mL"},
      {"measurement": "C. albicans MIC (minimum inhibitory concentration)", "setting": "Candida albicans", "value": 10.0, "unit": "µg/mL"},
      {"measurement": "A. fumigatus IC50 (50% growth inhibitory concentration)", "setting": "Aspergillus fumigatus; [3]", "value": ">20/>20 μg/mL"},
      {"measurement": "A. fumigatus MIC (minimum inhibitory concentration)", "setting": "Aspergillus fumigatus; [4]", "value": ">20/>20 μg/mL"}
    ]},
    {"molecule": "CC(C)[C@@H]1NC(=O)[C@@H](C(C)C)NC(=O)[C@@H](NC(=O)CC(O)CCCCCCCCCCCCN=C(N)N)C(C)OC(=O)[C@@H](C)NC(=O)[C@@H](CCC(N)=O)NC(=O)[C@@H]([C@H](C)O)NC1=O", "note": "(stereo partly shown) [Fusaricidin B (SQ-1-43B)] ({Pentadecanoyl(3ξ-OH,15-Gua)}-[Thr(3ξ)][dV]V[dT][dQ][dA]; ester 1-C)", "values": [
      {"measurement": "MRSA IC50 (50% growth inhibitory concentration)", "setting": "[1]", "value": 4.2, "unit": "µg/mL"},
      {"measurement": "MRSA MIC (minimum inhibitory concentration)", "setting": "[1]", "value": 5.0, "unit": "µg/mL"},
      {"measurement": "C. neoformans IC50 (50% growth inhibitory concentration)", "setting": "Cryptococcus neoformans; [3]", "value": 1.1, "unit": "µg/mL"},
      {"measurement": "C. neoformans MIC (minimum inhibitory concentration)", "setting": "Cryptococcus neoformans; [4]", "value": 2.5, "unit": "µg/mL"},
      {"measurement": "VRE IC50 (50% growth inhibitory concentration)", "setting": "[2]", "value": 8.7, "unit": "µg/mL"},
      {"measurement": "VRE MIC (minimum inhibitory concentration)", "setting": "[2]", "value": 20.0, "unit": "µg/mL"},
      {"measurement": "E. coli IC50 (50% growth inhibitory concentration)", "setting": "Escherichia coli", "value": ">20/>20 μg/mL"},
      {"measurement": "E. coli MIC (minimum inhibitory concentration)", "setting": "Escherichia coli", "value": ">20/>20 μg/mL"},
      {"measurement": "P. aeruginosa IC50 (50% growth inhibitory concentration)", "setting": "Pseudomonas aeruginosa", "value": ">20/>20 μg/mL"},
      {"measurement": "P. aeruginosa MIC (minimum inhibitory concentration)", "setting": "Pseudomonas aeruginosa", "value": ">20/>20 μg/mL"},
      {"measurement": "C. albicans IC50 (50% growth inhibitory concentration)", "setting": "Candida albicans; [3]", "value": 9.1, "unit": "µg/mL"},
      {"measurement": "C. albicans MIC (minimum inhibitory concentration)", "setting": "Candida albicans", "value": 10.0, "unit": "µg/mL"},
      {"measurement": "A. fumigatus IC50 (50% growth inhibitory concentration)", "setting": "Aspergillus fumigatus; [3]", "value": ">20/>20 μg/mL"},
      {"measurement": "A. fumigatus MIC (minimum inhibitory concentration)", "setting": "Aspergillus fumigatus; [4]", "value": ">20/>20 μg/mL"}
    ]},
    {"molecule": "Fusaricidin B", "values": [
      {"measurement": "activity against MRSA (in words)", "setting": "[1]", "value": "strong activity"},
      {"measurement": "activity against VRE (in words)", "setting": "[2]", "value": "strong activity"}
    ]}
  ]
}
